Measurements: patent publication US10736883B2, “Triazole furan compounds as agonists of the APJ receptor” (AMGEN INC., priority 2016, dated 2020)

These molecules were tested against APJ receptor (Homo sapiens (Human), UniProt P35414) (assay: [35S]GTPγS binding assay on membranes from CHO cells stably expressing human APJ receptor). Settings: membranes of CHO cells stably expressing human APJ receptor, means of several independent experiments, read-out: Activity hAPJ SPA EC50 IP.
Type: biochemical
How it was run: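 EC50 values were obtained by non-linear regression of [35S]GTPγS (0.2 nM) binding after 90 min at RT, with nonspecific binding defined by 100 μM GTPγS. Reactions used human APJ–expressing CHO cell membranes on WGA PS beads in HEPES pH 7.5 buffer with 5 mM MgCl2, 200 mM NaCl, 3 μM GDP and 0.1% BSA.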

Chain of APJ receptor (P35414 whole entry): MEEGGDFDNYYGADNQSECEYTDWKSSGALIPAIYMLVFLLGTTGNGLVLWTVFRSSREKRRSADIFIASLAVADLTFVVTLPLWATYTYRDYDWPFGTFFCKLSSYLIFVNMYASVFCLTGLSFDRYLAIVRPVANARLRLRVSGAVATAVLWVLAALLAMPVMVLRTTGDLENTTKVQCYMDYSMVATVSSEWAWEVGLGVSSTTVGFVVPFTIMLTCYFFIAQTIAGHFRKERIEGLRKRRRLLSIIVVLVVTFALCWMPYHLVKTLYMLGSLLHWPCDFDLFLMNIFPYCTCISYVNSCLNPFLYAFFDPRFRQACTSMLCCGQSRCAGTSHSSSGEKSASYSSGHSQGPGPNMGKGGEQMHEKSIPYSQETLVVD

EC50 [nM] | SMILES
0.74 | COc1cccc(OC)c1-n1c(NS(=O)(=O)CCN2C(=O)N(C)CC[C@@H]2C)nnc1-c1ccc(C)o1 (single isomer, unassigned) [Example 164.0, N-(4-(2,6-Dimethoxyphenyl)-5-(5-methyl-2-furanyl)-4H-1,2,4-triazol-3-yl)-2-((6S)-3,6-dimethyl-2-oxotetrahydro-1(2H)-pyrimidinyl)ethanesulfonamide or N-(4-(2,6-dimethoxyphenyl)-5-(5-methyl-2-furanyl)-4H-1,2,4-triazol-3-yl)-2-((6R)-3,6-dimethyl-2-oxotetrahydro-1(2H)-pyrimidinyl)ethanesulfonamide]
0.94 | COc1cccc(OC)c1-n1c(NS(=O)(=O)[C@H]2C[C@@H](O)CN(c3ncc(F)cn3)C2)nnc1-c1ccco1 (single isomer, unassigned) [Example 167.0, (3S,5R)—N-(4-(2,6-Dimethoxyphenyl)-5-(2-furanyl)-4H-1,2,4-triazol-3-yl)-1-(5-fluoro-2-pyrimidinyl)-5-hydroxy-3-piperidinesulfonamide or (3R,5S)—N-(4-(2,6-dimethoxyphenyl)-5-(2-furanyl)-4H-1,2,4-triazol-3-yl)-1-(5-fluoro-2-pyrimidinyl)-5-hydroxy-3-piperidinesulfonamide]
0.97 | COc1cccc(OC)c1-n1c(NS(=O)(=O)CCN2C(=O)[C@@H](C)C[C@]2(C)C#N)nnc1-c1ccco1 (single isomer, unassigned) [Example 168.0]
1.6 | COc1cccc(OC)c1-n1c(NS(=O)(=O)[C@H]2CC[C@H]3CCCC(=O)N3C2)nnc1-c1ccc(C)o1 (single isomer, unassigned) [Example 173.0]
1.9 | COc1cccc(OC)c1-n1c(NS(=O)(=O)[C@@H]2C[C@H](C#N)CN(c3ncc(F)cn3)C2)nnc1-c1ccc(C)o1 (single isomer, unassigned) [Example 174.0, (3R,5S)-5-Cyano-N-(4-(2,6-dimethoxyphenyl)-5-(5-methyl-2-furanyl)-4H-1,2,4-triazol-3-yl)-1-(5-fluoro-2-pyrimidinyl)-3-piperidinesulfonamide or (3S,5R)-5-cyano-N-(4-(2,6-dimethoxyphenyl)-5-(5-methyl-2-furanyl)-4H-1,2,4-triazol-3-yl)-1-(5-fluoro-2-pyrimidinyl)-3-piperidinesulfonamide]
1.9 | COc1cccc(OC)c1-n1c(NS(=O)(=O)CCN2C(=O)[C@H](C)C[C@H]2C)nnc1-c1ccco1 (single isomer, unassigned) [Example 175.0]

Further lines, the molecule ahead of its results:

SMILES | EC50 [nM]
COc1cccc(OC)c1-n1c(NS(=O)(=O)C[C@H](O)c2ccc(Cl)cc2S(C)(=O)=O)nnc1-c1ccc(C)o1 (single isomer, unassigned) [Example 144.0, (2R)-2-(4-Chloro-2-(methylsulfonyl)phenyl)-N-(4-(2,6-dimethoxyphenyl)-5-(5-methyl-2-furanyl)-4H-1,2,4-triazol-3-yl)-2-hydroxyethanesulfonamide or (2S)-2-(4-chloro-2-(methylsulfonyl)phenyl)-N-(4-(2,6-dimethoxyphenyl)-5-(5-methyl-2-furanyl)-4H-1,2,4-triazol-3-yl)-2-hydroxyethanesulfonamide] | 0.073
COc1cnc([C@@H](O)[C@H](C)S(=O)(=O)Nc2nnc(-c3ccc(C)o3)n2-c2c(OC)cccc2OC)cn1 (single isomer, unassigned) [Example 146.0, (1R, 2S)—N-(4-(2,6-Dimethoxyphenyl)-5-(5-methyl-2-furanyl)-4H-1,2,4-triazol-3-yl)-1-hydroxy-1-(5-methoxy-2-pyrazinyl)-2-propanesulfonamide or (1S, 2R)—N-(4-(2,6-dimethoxyphenyl)-5-(5-methyl-2-furanyl)-4H-1,2,4-triazol-3-yl)-1-hydroxy-1-(5-methoxy-2-pyrazinyl)-2-propanesulfonamide] | 0.13
COC[C@H]1CCCC(=O)N1C[C@@H](C)S(=O)(=O)Nc1nnc(-c2ccc(C)o2)n1-c1c(OC)cccc1OC (single isomer, unassigned) [Example 150.0] | 0.22
COc1cccc(OC)c1-n1c(NS(=O)(=O)[C@@H](C)[C@@H](O)c2ccc(Cl)cc2S(C)(=O)=O)nnc1-c1ccc(C)o1 (single isomer, unassigned) [Example 153.0, (1R,2R)-1-(4-Chloro-2-(methylsulfonyl)phenyl)-N-(4-(2,6-dimethoxyphenyl)-5-(5-methyl-2-furanyl)-4H-1,2,4-triazol-3-yl)-1-hydroxy-2-propanesulfonamide or (1S,2S)-1-(4-chloro-2-(methylsulfonyl)phenyl)-N-(4-(2,6-dimethoxyphenyl)-5-(5-methyl-2-furanyl)-4H-1,2,4-triazol-3-yl)-1-hydroxy-2-propanesulfonamide] | 0.26
CCOC(=O)[C@@H]1C[C@H](S(=O)(=O)Nc2nnc(-c3ccco3)n2-c2c(OC)cccc2OC)CN(c2ncc(F)cn2)C1 (single isomer, unassigned) [Example 156.0, Ethyl (3R,5S)-5-((4-(2,6-Dimethoxyphenyl)-5-(2-furanyl)-4H-1,2,4-triazol-3-yl)sulfamoyl)-1-(5-fluoro-2-pyrimidinyl)-3-piperidinecarboxylate or Ethyl (3S,5R)-5-((4-(2,6-dimethoxyphenyl-5-(2-furanyl)-4H-1,2,4-triazol-3-yl)sulfamoyl)-1-(5-fluoro-2-pyrimidinyl)-3-piperidinecarboxylate] | 0.36
COc1cccc(OC)c1-n1c(NS(=O)(=O)[C@@H](C)[C@H](O)c2ccc(Cl)cc2S(C)(=O)=O)nnc1-c1ccc(C)o1 (single isomer, unassigned) [Example 157.0, (1R,2S)-1-(4-Chloro-2-(methylsulfonyl)phenyl)-N-(4-(2,6-dimethoxyphenyl)-5-(5-methyl-2-furanyl)-4H-1,2,4-triazol-3-yl)-1-hydroxy-2-propanesulfonamide or (1S,2R)-1-(4-chloro-2-(methylsulfonyl)phenyl)-N-(4-(2,6-dimethoxyphenyl)-5-(5-methyl-2-furanyl)-4H-1,2,4-triazol-3-yl)-1-hydroxy-2-propanesulfonamide] | 0.39
COc1cccc(OC)c1-n1c(NS(=O)(=O)[C@H]2C[C@@H](C(=O)N3CCC3)CN(c3ncc(F)cn3)C2)nnc1-c1ccco1 (single isomer, unassigned) [Example 162.0, (3R,5S)-5-(1-Azetidinylcarbonyl)-N-(4-(2,6-dimethoxyphenyl)-5-(2-furanyl)-4H-1,2,4-triazol-3-yl)-1-(5-fluoro-2-pyrimidinyl)-3-piperidinesulfonamide or (3S,5R)-5-(1-azetidinylcarbonyl)-N-(4-(2,6-dimethoxyphenyl)-5-(2-furanyl)-4H-1,2,4-triazol-3-yl)-1-(5-fluoro-2-pyrimidinyl)-3-piperidinesulfonamide] | 0.68
COc1cccc(OC)c1-n1c(NS(=O)(=O)[C@@H]2C[C@@H](c3ccc(F)cc3)CN(C(C)=O)C2)nnc1-c1ccc(C)o1 (single isomer, unassigned) [Example 171.0, (3R,5S)-1-Acetyl-N-(4-(2,6-dimethoxyphenyl)-5-(5-methyl-2-furanyl)-4H-1,2,4-triazol-3-yl)-5-(4-fluorophenyl)-3-piperidinesulfonamide or (3S,5R)-1-acetyl-N-(4-(2,6-dimethoxyphenyl)-5-(5-methyl-2-furanyl)-4H-1,2,4-triazol-3-yl)-5-(4-fluorophenyl)-3-piperidinesulfonamide] | 1.2
